Experimental data as given in ChEMBL document CHEMBL3046882, “Synthesis and antibacterial activity against ralstonia solanacearum for novel hydrazone derivatives containing a pyridine moiety” (2012).

How the values were obtained:
Ralstonia solanacearum [1] = experiment: Antibacterial activity against Ralstonia solanacearum assessed as growth inhibition at […] after 48 hrs by turbidimeter test; type: functional; set-up: dose or concentration left out as unconfirmed; details: for inhibition of growth: read-out: GI
Ralstonia solanacearum [2] = experiment: Antibacterial activity against Ralstonia solanacearum assessed as growth inhibition at […] after 48 hrs by turbidimeter test; type: functional; set-up: dose or concentration left out as unconfirmed; details: for inhibition of growth: read-out: GI

| Molecule | inhibition of growth (Ralstonia solanacearum [1]) [%] | inhibition of growth (Ralstonia solanacearum [2]) [%] | growth inhibition (GI) (Ralstonia solanacearum [1]) [%] | growth inhibition (GI) (Ralstonia solanacearum [2]) [%] |
| --- | --- | --- | --- | --- |
| Cc1cc(Cl)cc(C(=O)N/N=C\N(C)C)c1NC(=O)c1cccnc1Cl | 57.1 | 100 | – | – |
| COc1ccc(OC)c(/C=N\NC(=O)c2cc(Cl)cc(C)c2NC(=O)c2cccnc2Cl)c1 | 1.9 | 25.2 | – | – |
| COc1ccc(/C=N\NC(=O)c2cc(Cl)cc(C)c2NC(=O)c2cccnc2Cl)c(OC)c1 | 0 | 36.1 | – | – |
| Cc1cc(Cl)cc(C(=O)N/N=C\c2ccc(Cl)c(Cl)c2)c1NC(=O)c1cccnc1Cl | 12.4 | 35 | – | – |
| CC/C=N\NC(=O)c1cc(Cl)cc(C)c1NC(=O)c1cccnc1Cl | 0 | 5 | – | – |
| Cc1cc(Cl)cc(C(=O)N/N=C\c2ccc(C(C)(C)C)cc2)c1NC(=O)c1cccnc1Cl | 18.2 | 39 | – | – |
| Cc1cc(Cl)cc(C(=O)N/N=C\c2c(Cl)cccc2Cl)c1NC(=O)c1cccnc1Cl | 15.2 | 18.2 | – | – |
| Cc1cc(Cl)cc(C(=O)N/N=C\c2ccccc2Cl)c1NC(=O)c1cccnc1Cl | 0 | 6 | – | – |
| COc1cccc(/C=N\NC(=O)c2cc(Cl)cc(C)c2NC(=O)c2cccnc2Cl)c1OC | 0 | 40.3 | – | – |
| Cc1cc(Cl)cc(C(=O)N/N=C\c2ccc(F)cc2)c1NC(=O)c1cccnc1Cl | 1.1 | 5 | – | – |
| COPPER HYDROXIDE | – | – | 100 | 100 |
| Cc1cc(Cl)cc(C(=O)N/N=C\c2cccc(C(F)(F)F)c2)c1NC(=O)c1cccnc1Cl | 33.3 | 80.9 | – | – |
